Assay results reported in patent publication US20180099931A1 (AbbVie S.à.r.l., priority 2016, published 2018).
Where two headings read alike, the source gives them in different places.

Biological target: T1, F508delCFTR (Homo sapiens, UniProt P13569, DEL508-508)
T1 construct: expressed in transfected cells; host or cells: CFBE41o- human lung-derived epithelial cells (CFBE4lo-F508delCFTR-HRP), doxycycline-inducible
Assay: Cell Surface Expression-Horse Radish Peroxidase (CSE-HRP) Assay;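 on Maximum % activity (with co-corrector): co-corrector and positive control are both the same reference corrector at 2 µM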;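 on Maximum % activity (without co-corrector): percent of the 2 µM on-plate positive control corrector response above DMSO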
Type: cell-based
Details: for Maximum % activity (with co-corrector) / Emax: maximum at any tested concentration, normalized to on-plate positive control; for Emax: read-out: Maximum % activity (without co-corrector)

[1] = CSE-HRP, test compound without co-corrector, read-out: EC50 (without co-corrector)
[2] = CSE-HRP, with co-corrector (2 μM of 3-[(2R,4R)-4-({[1-(2,2-difluoro-1,3-benzodioxol-5-yl)cyclopropyl]carbonyl}amino)-7-methoxy-3,4-dihydro-2H-chromen-2-yl]benzoic acid), read-out: EC50 (with co-corrector)
[3] = CSE-HRP, with co-corrector (2 μM)
[4] = test compound without co-corrector
[5] = test compound without co-corrector, read-out: EC50 (without co-corrector)
[6] = with co-corrector (2 μM of 3-[(2R,4R)-4-({[1-(2,2-difluoro-1,3-benzodioxol-5-yl)cyclopropyl]carbonyl}amino)-7-methoxy-3,4-dihydro-2H-chromen-2-yl]benzoic acid)
[7] = with co-corrector (2 μM of 3-[(2R,4R)-4-({[1-(2,2-difluoro-1,3-benzodioxol-5-yl)cyclopropyl]carbonyl}amino)-7-methoxy-3,4-dihydro-2H-chromen-2-yl]benzoic acid), read-out: EC50 (with co-corrector)

T1 sequence (P13569 with tags, fused parts or gaps DEL508-508): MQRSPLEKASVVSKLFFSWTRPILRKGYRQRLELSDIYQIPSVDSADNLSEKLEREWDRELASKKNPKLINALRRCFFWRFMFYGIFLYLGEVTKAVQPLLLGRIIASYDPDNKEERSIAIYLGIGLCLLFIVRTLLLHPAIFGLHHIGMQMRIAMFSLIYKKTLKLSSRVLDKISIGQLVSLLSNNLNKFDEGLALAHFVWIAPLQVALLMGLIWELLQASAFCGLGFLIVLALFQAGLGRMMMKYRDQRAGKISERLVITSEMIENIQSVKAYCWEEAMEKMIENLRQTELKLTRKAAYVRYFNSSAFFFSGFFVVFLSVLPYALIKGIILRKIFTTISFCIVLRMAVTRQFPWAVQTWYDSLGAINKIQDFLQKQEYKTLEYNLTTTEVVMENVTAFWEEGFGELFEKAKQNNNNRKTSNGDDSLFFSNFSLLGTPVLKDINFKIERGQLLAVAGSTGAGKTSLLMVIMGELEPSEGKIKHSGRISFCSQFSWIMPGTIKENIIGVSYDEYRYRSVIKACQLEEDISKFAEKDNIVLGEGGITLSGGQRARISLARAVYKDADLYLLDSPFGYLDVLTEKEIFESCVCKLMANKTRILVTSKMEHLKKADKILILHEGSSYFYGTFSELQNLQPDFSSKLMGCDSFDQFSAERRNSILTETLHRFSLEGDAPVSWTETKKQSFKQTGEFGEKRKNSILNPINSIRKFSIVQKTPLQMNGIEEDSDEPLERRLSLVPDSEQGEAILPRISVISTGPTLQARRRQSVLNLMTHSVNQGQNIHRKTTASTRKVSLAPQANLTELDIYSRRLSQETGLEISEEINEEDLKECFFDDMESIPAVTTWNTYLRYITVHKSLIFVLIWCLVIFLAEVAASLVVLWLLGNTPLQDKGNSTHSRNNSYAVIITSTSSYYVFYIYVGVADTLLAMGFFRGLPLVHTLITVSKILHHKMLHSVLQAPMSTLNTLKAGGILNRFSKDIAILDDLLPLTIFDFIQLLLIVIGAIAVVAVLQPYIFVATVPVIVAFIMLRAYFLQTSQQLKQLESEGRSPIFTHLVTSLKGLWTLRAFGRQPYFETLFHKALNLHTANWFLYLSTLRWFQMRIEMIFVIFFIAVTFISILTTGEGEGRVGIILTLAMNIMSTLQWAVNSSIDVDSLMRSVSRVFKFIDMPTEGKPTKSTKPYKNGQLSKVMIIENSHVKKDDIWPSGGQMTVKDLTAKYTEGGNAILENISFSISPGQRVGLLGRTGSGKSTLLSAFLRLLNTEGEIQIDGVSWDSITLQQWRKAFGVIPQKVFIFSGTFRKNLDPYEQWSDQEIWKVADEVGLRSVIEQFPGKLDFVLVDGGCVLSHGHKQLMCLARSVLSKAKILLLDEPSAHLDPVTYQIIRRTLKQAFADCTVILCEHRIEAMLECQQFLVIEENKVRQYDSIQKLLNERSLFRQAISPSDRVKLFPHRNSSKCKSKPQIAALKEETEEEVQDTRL

Structure (SMILES)	EC50 [1]	EC50 [2]	Maximum % activity (with co-corrector) [3]	Emax (CSE-HRP, without co-corrector)	Emax [4]	EC50 [5]	Maximum % activity (with co-corrector) [6]	EC50 [7]	Maximum % activity (with co-corrector) (with co-corrector (2 μM))	Emax (without co-corrector)
COc1cc(C(F)(F)F)ccc1CN[C@H]1[C@H](C(C)(C)C)[C@@H](C(=O)O)N(C(=O)[C@H](OC)c2ccccc2)[C@H]1c1cccnc1N(C)C (racemic) [II-48]	1000 to 10000 nM	1000 to 10000 nM	+++ (≥350)	100 to 200%						
COc1ccc(C(C)(C)C)cc1CN[C@H]1[C@H](C(C)(C)C)[C@@H](C(=O)O)N(C(=O)C2Cc3ccccc3O2)[C@H]1c1cccnc1OC (single isomer, unassigned) [Example I-165]						< 1000 nM		< 1000 nM	+++ (≥350)	100 to 200%
COc1ccc(C(C)(C)C)cc1CN[C@H]1[C@H](C(C)(C)C)[C@@H](C(=O)O)N(C(=O)C2CCCCC2C(=O)N2CCC2)[C@H]1c1ccccc1 (stereo partly shown) [Example I-149]						1000 to 10000 nM		1000 to 10000 nM	+++ (≥350)	> 200%
COc1ncc(C2CCC2)cc1CN[C@H]1[C@H](C(C)(C)C)[C@@H](C(=O)O)N(C(=O)C2CCCCC2)[C@H]1c1cccnc1N(C)C [Example I-131]						1000 to 10000 nM		1000 to 10000 nM	+++ (≥350)	> 200%
COc1cc(C(F)(F)F)ccc1CN[C@H]1[C@H](C(C)(C)C)[C@@H](C(=O)O)N(C(=O)C2C3CCCC32)[C@H]1c1ccccc1 (stereo partly drawn) [Example 65, (2S,3S,4S,5S)-1-(bicyclo[3.1.0]hexane-6-carbonyl)-3-tert-butyl-4-({[2-methoxy-4-(trifluoromethyl)phenyl]methyl}amino)-5-phenylpyrrolidine-2-carboxylic acid]						1000 to 10000 nM		1000 to 10000 nM	+++ (≥350)	100 to 200%
COc1cc(C(F)(F)F)ccc1CN[C@H]1[C@H](C(C)(C)C)[C@@H](C(=O)O)N(C(=O)C2CCCCC2)[C@H]1c1ccccc1C [Example 88, (2S,3S,4S,5S)-3-tert-butyl-1-(cyclohexanecarbonyl)-4-({[2-methoxy-4-(trifluoromethyl)phenyl]methyl}amino)-5-(2-methylphenyl)pyrrolidine-2-carboxylic acid]						< 1000 nM		< 1000 nM	+++ (≥350)	> 200%
COc1ccc(C(F)(F)F)cc1CN[C@@H]1[C@@H](C(C)(C)C)[C@H](C(=O)O)N(C(=O)[C@@H](OC)c2ccccc2)[C@@H]1c1ccccc1 [II-64]	> 10000 nM	1000 to 10000 nM	++ (≥150 and <350)	< 100%						
COc1ccc(C2(C)CCC2)cc1CN[C@H]1[C@H](C(C)(C)C)[C@@H](C(=O)O)N(C(=O)[C@@H]2CCCO2)[C@H]1c1ccccc1C1CC1 [Example 112, (2S,3S,4S,5S)-3-tert-butyl-5-(2-cyclopropylphenyl)-4-({[2-methoxy-5-(1-methylcyclobutyl)phenyl]methyl}amino)-1-[(2S)-oxolane-2-carbonyl]pyrrolidine-2-carboxylic acid]						1000 to 10000 nM		< 1000 nM	+++ (≥350)	> 200%
CC(C)Oc1ccccc1CN[C@@H]1[C@@H](C(C)(C)C)[C@H](C(=O)O)N(C(=O)C2CCCCC2)[C@@H]1c1ccccc1 (racemic) [II-4]	1000 to 10000 nM	1000 to 10000 nM	+++ (≥350)	100 to 200%						
COc1ccc(C(C)(C)C)cc1CN[C@H]1[C@H](C(C)(C)C)[C@@H](C(=O)O)N(C(=O)OC(C)C)[C@H]1c1ccccc1C(C)C [Example 61, (2S,3S,4S,5S)-3-tert-butyl-4-{[(5-tert-butyl-2-methoxyphenyl)methyl]amino}-1-{[(propan-2-yl)oxy]carbonyl}-5-[2-(propan-2-yl)phenyl]pyrrolidine-2-carboxylic acid]						< 1000 nM		< 1000 nM	+++ (≥350)	> 200%
Cc1cc(C(F)(F)F)cc(N[C@H]2[C@@H](c3ccccc3)N(C(=O)C3CCCCC3)[C@@H](C(=O)O)C23CC3)n1 (racemic) [Example I-17]						1000 to 10000 nM		1000 to 10000 nM	++ (≥150 and <350)	< 100%

The next lines start with the values.

EC50 [1]	EC50 [2]	Maximum % activity (with co-corrector) [3]	Emax (CSE-HRP, without co-corrector)	Emax [4]	EC50 [5]	Maximum % activity (with co-corrector) [6]	EC50 [7]	Maximum % activity (with co-corrector) (with co-corrector (2 μM))	Emax (without co-corrector)	Structure (SMILES)
				< 100%	1000 to 10000 nM	++ (≥150 and <350)	1000 to 10000 nM			COc1ccc(C(C)(C)C)cc1CN[C@H]1[C@H](C(C)(C)C)[C@@H](C(=O)O)N(C(=O)C2(c3cccc(Cl)c3)COC2)[C@H]1c1ccccc1 [II-497]
< 1000 nM	< 1000 nM	+++ (≥350)	> 200%							COc1ccc(C(C)(C)C)cc1CN[C@H]1[C@H](C(C)(C)C)[C@@H](C(=O)O)N(C(=O)Cc2ccccc2C)[C@H]1c1ccccc1 [II-205]
1000 to 10000 nM	1000 to 10000 nM	+++ (≥350)	> 200%							COc1ccc(C(C)(C)C)cc1CN[C@H]1[C@H](C(C)(C)C)[C@@H](C(=O)O)N(C(=O)[C@H]2C[C@H](CCC#N)C[C@H]2C)[C@H]1c1ccccc1 [II-173]
				< 100%	1000 to 10000 nM		1000 to 10000 nM	++ (≥150 and <350)		COc1ccc(C(F)(F)F)cc1CN[C@H]1[C@H](C(C)(C)C)[C@@H](C(=O)O)N(C(=O)[C@H]2CCCC(F)(F)C2)[C@H]1c1ccccc1 [III-185]
				> 200%	1000 to 10000 nM	+++ (≥350)	< 1000 nM			COc1ccc(C(C)(C)C)cc1CN[C@H]1[C@H](C(C)(C)C)[C@@H](C(=O)O)N(C(=O)c2cnn(-c3ccc(F)cc3F)c2C)[C@H]1c1ccccc1 [II-356]
				< 100%	> 10000 nM		1000 to 10000 nM	++ (≥150 and <350)		CC(C)(C)[C@H]1[C@H](NCc2ccc3c(c2)CCCO3)[C@H](c2ccccc2)N(C(=O)C2CCCCC2)[C@@H]1C(=O)O [III-120]
1000 to 10000 nM	1000 to 10000 nM	+++ (≥350)	100 to 200%							COc1ccc(-c2ccccc2)nc1CN[C@H]1[C@H](C(C)(C)C)[C@@H](C(=O)O)N(C(=O)C2CCCCC2)[C@H]1c1ccccc1 [II-296]
				< 100%	1000 to 10000 nM		1000 to 10000 nM	++ (≥150 and <350)		COc1ccc2c(C)cc(N[C@H]3[C@H](C(C)(C)C)[C@@H](C(=O)O)N(C(=O)C4CCCCC4)[C@H]3c3ccccc3)nc2c1 [III-151]
1000 to 10000 nM	1000 to 10000 nM	++ (≥150 and <350)	< 100%							COc1cc(C)ccc1CN[C@H]1[C@H](C(C)(C)C)[C@@H](C(=O)O)N(C(=O)[C@@H]2CCCCO2)[C@H]1c1cccnc1OC [II-123]
				> 200%	< 1000 nM		< 1000 nM	+++ (≥350)		COc1ccc(C23CC4CC(CC(C4)C2)C3)cc1CN[C@H]1[C@H](C(C)(C)C)[C@@H](C(=O)O)N(C(=O)C2CCCCC2)[C@H]1c1cccnc1N(C)C [III-183]
1000 to 10000 nM	1000 to 10000 nM	++ (≥150 and <350)	< 100%							COc1ccc(C(F)(F)F)cc1CN[C@@H]1[C@@H](C(C)(C)C)[C@H](C(=O)O)N(C(=O)[C@@H](C)Oc2ccccc2)[C@@H]1c1ccccc1 (racemic) [II-66]
